Measured values reported in EP0269322B1, “Virginiamycin analogs” (Merck & Co., Inc., priority 1986, dated 1988).
In brackets after ≈: the same amount, converted by molar mass.

Legend:
Gastrin Receptor = molecular target: T1, Gastrin Receptor (Cavia porcellus, UniProt H0VZC5); experiment: Gastrin receptor binding in guinea pig gastric glands (125I-gastrin); conditions: ¹²⁵I-gastrin, 25°C for 30 minutes, read-out: IC₅₀
T1 construct: from tissue; host or cells: guinea pig gastric mucosal glands
T1 sequence (H0VZC5 1-426): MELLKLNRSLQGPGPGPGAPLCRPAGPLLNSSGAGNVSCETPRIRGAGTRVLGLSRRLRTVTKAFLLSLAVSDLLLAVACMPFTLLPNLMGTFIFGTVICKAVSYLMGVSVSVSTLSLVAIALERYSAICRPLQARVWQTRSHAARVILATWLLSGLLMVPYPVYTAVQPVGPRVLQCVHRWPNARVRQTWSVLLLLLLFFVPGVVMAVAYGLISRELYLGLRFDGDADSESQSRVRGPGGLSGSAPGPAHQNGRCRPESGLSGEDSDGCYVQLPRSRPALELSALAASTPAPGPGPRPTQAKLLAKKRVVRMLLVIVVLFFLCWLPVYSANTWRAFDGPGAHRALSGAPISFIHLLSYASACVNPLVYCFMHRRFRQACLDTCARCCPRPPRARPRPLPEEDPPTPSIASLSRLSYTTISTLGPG
Protocol: Guinea pig gastric mucosal glands were prepared by the procedure of Praissman et al., J. Receptor Res. 3:647 (1983). Stomachs from male Hartley guinea pigs (250-400 g body weight) were washed thoroughly and minced with fine scissors in HEPES buffer consisting of the following: 130 mM NaCl, 12 mM NaHCO₃, 3 mM NaH₂PO₄, 3 mM […], 3 mM K₂HPO₄, 2 mM MgSO₄, 1 mM CaCl₂, 5 mM glucose and 4 mM L-glutamine, 25 mM HEPES at pH 7.4. The minced tissues were washed and incubated in a 37°C shaker bath for 40 minutes, with HEPES buffer containing 0.1% collagenase and 0.1% bovine serum albumin (BSA), and bubbled with 95% O₂ and 5% CO₂. The tissues were passed twice through a 5 ml glass syringe to liberate the gastric glands, and then filtered through 200 mesh nylon. The filtered glands were centrifuged at 270 ^x g for 5 minutes and washed twice by resuspension and centrifugation.
The washed guinea pig gastric glands were resuspended in 25 ml of HEPES buffer containing 0.25 mg/ml of bacitracin. For binding studies, 14.2 µl of 50% MeOH/H₂O (for total binding) or gastrin (1 µM final concentration, for nonspecific binding) or broth or test compound from Examples 2, 3 or 4 and 20 µl of ¹²⁵I-gastrin (New England Nuclear [NEN], 20,000 cpm 20 µl) were added to 220 µl of gastric glands in triplicate tubes which were aerated with 95% O₂ and 5% CO₂ and capped. The reaction mixtures, after incubation at 25°C for 30 minutes in a shaking water bath, were filtered under reduced pressure on glass GF/B filters (Whatman) and immediately washed with 3 ^x 4 ml of HEPES buffer containing 0.1% BSA fraction V. The radioactivity on the filters was measured using a Beckman 5500 gamma counter for ¹²⁵I-gastrin.

Micrococcus luteus = experiment: Antibiotic activity, filter paper disc agar diffusion MIC; format: cell-based; conditions: filter paper discs on agar, 15 hours at 28°C
Protocol: The compounds of Formulae I, II, and IV and virginiamycin M₁ from Example 2 were assayed for antibiotic activity following a method described by Matsen and Barry, Manual of Clinical Microbiology, Lennette, Spaulding, and Truant, Eds., American Society for Microbiology, Washington, D.C., p. 418 (1974). The minimal inhibitory concentrations (MIC) were determined by applying serial dilutions of the compounds of Formulae I, III, and IV and virginiamycin M₁ to standard filter paper discs. The concent↑ation of the test compounds ↑anged f↑om […] to 3.0 µg per disc in 20 µl of diluent. The test organism, Micrococcus luteus, was innoculated on the surface of an agar based nutrient medium in petri plates and the discs placed on the surface of the medium. The nutrient media consisted of nutrient broth supplemented with 0.2% yeast extract and 1.5% agar. The innoculated plates were incubated for 15 hours at 28°C and the zones of inhibition determined. The MIC of each compound was determined by the method described in Matsen and Barry, supra.

CC1=C\CCC(=O)Cc2nc(co2)C(=O)N2CCC=C2C(=O)O[C@H](C(C)C)[C@H](C)/C=C/C(=O)NC\C=C\1 [IV]
IC50 (Gastrin Receptor): 360 nM
MIC (Micrococcus luteus): 15 µM (≈ 7.64 µg/mL)

CC1=C\[C@@H](O)CC(=O)Cc2nc(co2)C(=O)N2CCC=C2C(=O)O[C@H](C(C)C)[C@H](C)/C=C/C(=O)NC\C=C\1 [Virginiamycin M₁, reference compound]
IC50 (Gastrin Receptor): 710 nM
MIC (Micrococcus luteus): 1.5 µM (≈ 0.788 µg/mL)

CC1=C\C=C\C(=O)Cc2nc(co2)C(=O)N2CCC=C2C(=O)O[C@H](C(C)C)[C@H](C)/C=C/C(=O)NC\C=C\1 [Compound III]
IC50 (Gastrin Receptor): 90 nM
MIC (Micrococcus luteus): 250 µM (≈ 127 µg/mL)

CC1=C\C=C\[C@H](O)Cc2nc(co2)C(=O)N2CCC=C2C(=O)O[C@H](C(C)C)[C@H](C)/C=C/C(=O)NC\C=C\1 [Compound II]
IC50 (Gastrin Receptor): 13 nM

CC1=C\C=C\[C@@H](O)Cc2nc(co2)C(=O)N2CCC=C2C(=O)O[C@H](C(C)C)[C@H](C)/C=C/C(=O)NC\C=C\1 [Compound I]
IC50 (Gastrin Receptor): 12 nM
MIC (Micrococcus luteus): 90 µM (≈ 45.9 µg/mL)
